Reference: ChEMBL document CHEMBL3872207, “Aromatic heterocyclic esters of podophyllotoxin exert anti-MDR activity in human leukemia K562/ADR cells via ROS/MAPK signaling pathways” (Eur J Med Chem, 2016)

Columns and labels:
[1] = tested on: K562; assay: Resistance index, ratio of IC50 for human K562/ADR cells to IC50 for human K562 cells; type: functional
[2] = Antiproliferative activity against human K562 cells measured after 72 hrs by CCK8 assay; type: functional, cell-based; details: K562, 72 h
[3] = Antiproliferative activity against human K562/ADR cells measured after 72 hrs by CCK8 assay; type: functional, cell-based
[4] = Potency index, ratio of doxorubicin IC50 to compound IC50 for antiproliferative activity against human K562/ADR cells; type: functional
[5] = Potency index, ratio of etoposide IC50 to compound IC50 for antiproliferative activity against human K562/ADR cells; type: functional

Row | Structure (SMILES) | Ratio IC50 [1] | IC50 [2] [µM] | IC50 [3] [µM] | Ratio IC50 [4] | Ratio IC50 [5]
1 | COc1cc([C@@H]2c3cc4c(cc3[C@H](OC(=O)c3ccc5nc(C)ccc5c3)[C@H]3COC(=O)[C@H]23)OCO4)cc(OC)c1OC | 0.953 | 0.064 | 0.061 |  | 
2 | COc1cc([C@@H]2c3cc4c(cc3[C@H](OC(=O)c3cnn(C)c3)[C@H]3COC(=O)[C@H]23)OCO4)cc(OC)c1OC | 2.673 | 0.052 | 0.139 |  | 
3 | COc1cc([C@@H]2c3cc4c(cc3[C@H](OC(=O)c3cnc5ccccc5n3)[C@H]3COC(=O)[C@H]23)OCO4)cc(OC)c1OC | 1.545 | 0.022 | 0.034 | 552.323 | 65.029
4 | COc1cc([C@@H]2c3cc4c(cc3[C@H](OC(=O)c3cscn3)[C@H]3COC(=O)[C@H]23)OCO4)cc(OC)c1OC | 2.114 | 0.035 | 0.074 |  | 
5 | COc1cccc2c1C(=O)c1c(O)c3c(c(O)c1C2=O)C[C@@](O)(C(=O)CO)C[C@@H]3O[C@H]1C[C@H](N)[C@H](O)[C@H](C)O1 [DOXORUBICIN] | 85.359 | 0.22 | 18.8 |  | 
6 | COc1cc([C@@H]2c3cc4c(cc3[C@H](OC(=O)c3cn(C)cn3)[C@H]3COC(=O)[C@H]23)OCO4)cc(OC)c1OC | 10.86 | 0.079 | 0.858 |  | 
7 | COc1cc([C@@H]2c3cc4c(cc3[C@H](OC(=O)c3cc5ccccc5s3)[C@H]3COC(=O)[C@H]23)OCO4)cc(OC)c1OC | 2.532 | 0.184 | 0.466 |  | 
8 | COc1cc([C@@H]2c3cc4c(cc3[C@@H](O[C@@H]3O[C@@H]5CO[C@@H](C)O[C@H]5[C@H](O)[C@H]3O)[C@H]3COC(=O)[C@H]23)OCO4)cc(OC)c1O [ETOPOSIDE] | 6.408 | 0.345 | 2.21 |  | 
9 | COc1cc([C@@H]2c3cc4c(cc3[C@H](OC(=O)c3cc(C)on3)[C@H]3COC(=O)[C@H]23)OCO4)cc(OC)c1OC | 2.08 | 0.025 | 0.052 |  | 
10 | COc1cc([C@@H]2c3cc4c(cc3[C@H](OC(=O)c3cn(C5CC5)c5cc(Cl)c(F)cc5c3=O)[C@H]3COC(=O)[C@H]23)OCO4)cc(OC)c1OC | 1.803 | 0.305 | 0.55 |  | 
11 | COc1cc([C@@H]2c3cc4c(cc3[C@H](OC(=O)c3nn(C)c5ccccc35)[C@H]3COC(=O)[C@H]23)OCO4)cc(OC)c1OC | 2.446 | 0.047 | 0.115 |  | 
12 | COc1cc([C@@H]2c3cc4c(cc3[C@H](OC(=O)c3nccc5ccccc35)[C@H]3COC(=O)[C@H]23)OCO4)cc(OC)c1OC | 2.765 | 0.064 | 0.177 |  | 
